Test results: PubChem BioAssay AID1963860 (Molecular Pharmacology Branch, DTP, NCI, 2024)

Tested on: CN0375-F725-PDC KRAS spheroid viability
Test: Anticancer human tumor CN0375-F725-PDC patient-derived colon carcinoma cell line growth inhibition [KRAS2]
Details: spheroids with HUVEC and MSC; for viability, T/C: stronger effect = lower value
Procedure, shortened: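 Combination screen of spheroid viability in tumor-cell co-cultures with endothelial (HUVEC) and mesenchymal stem cell stroma. Each agent was tested in half-log dilutions, topping at clinical Cmax or at 10 microM without a known Cmax.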

[1] = curve of first compound, second compound 0.1 µM
[2] = curve of first compound, second compound 0.316 µM
[3] = curve of first compound, second compound 1 µM
[4] = curve of first compound, second compound 3.16 µM
[5] = curve of first compound, second compound 10 µM
[6] = second compound 0.1 µM, first compound 0.0316 µM
[7] = second compound 0.1 µM, first compound 0.1 µM
[8] = second compound 0.1 µM, first compound 0.316 µM
[9] = second compound 0.1 µM, first compound 1 µM
[10] = second compound 0.1 µM, first compound 3.16 µM
[11] = second compound 0.1 µM, first compound 10 µM
[12] = second compound 0.316 µM, first compound 0.0316 µM
[13] = second compound 0.316 µM, first compound 0.1 µM
[14] = second compound 0.316 µM, first compound 0.316 µM
[15] = second compound 0.316 µM, first compound 1 µM
[16] = second compound 0.316 µM, first compound 3.16 µM
[17] = second compound 0.316 µM, first compound 10 µM
[18] = second compound 1 µM, first compound 0.0316 µM
[19] = second compound 1 µM, first compound 0.1 µM
[20] = second compound 1 µM, first compound 0.316 µM
[21] = second compound 1 µM, first compound 1 µM
[22] = second compound 1 µM, first compound 3.16 µM
[23] = second compound 1 µM, first compound 10 µM
[24] = second compound 3.16 µM, first compound 0.0316 µM
[25] = second compound 3.16 µM, first compound 0.1 µM
[26] = second compound 3.16 µM, first compound 0.316 µM
[27] = second compound 3.16 µM, first compound 1 µM
[28] = second compound 3.16 µM, first compound 3.16 µM
[29] = second compound 3.16 µM, first compound 10 µM
[30] = second compound 10 µM, first compound 0.0316 µM
[31] = second compound 10 µM, first compound 0.1 µM
[32] = second compound 10 µM, first compound 0.316 µM
[33] = second compound 10 µM, first compound 1 µM
[34] = second compound 10 µM, first compound 3.16 µM
[35] = second compound 10 µM, first compound 10 µM
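Note: spheroids exposed to agents for 7 days.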

Q: What does the source list for CC1(C)CCC(CN2CCN(c3ccc(C(=O)NS(=O)(=O)c4ccc(NCC5CCOCC5)c([N+](=O)[O-])c4)c(Oc4cnc5[nH]ccc5c4)c3)CC2)=C(c2ccc(Cl)cc2)C1 + CC1OCC2(CCN(c3cnc(Sc4ccnc(N)c4Cl)c(N)n3)CC2)C1N?
A: IC50 [1]: 3490 nM; IC50 [2]: 2760 nM; IC50 [3]: 2600 nM; IC50 [4]: 2130 nM; IC50 [5]: 1610 nM; viability, T/C [6]: 103%; viability, T/C [7]: 100%; viability, T/C [8]: 104%; viability, T/C [9]: 103%; viability, T/C [10]: 51.6%; viability, T/C [11]: 31.6%; viability, T/C [12]: 95.4%; viability, T/C [13]: 100%; viability, T/C [14]: 94.6%; viability, T/C [15]: 95.8%; viability, T/C [16]: 43.8%; viability, T/C [17]: 25.1%; viability, T/C [18]: 90.7%; viability, T/C [19]: 91.5%; viability, T/C [20]: 89.9%; viability, T/C [21]: 86.3%; viability, T/C [22]: 42.5%; viability, T/C [23]: 22.2%; viability, T/C [24]: 84.4%; viability, T/C [25]: 87.1%; viability, T/C [26]: 87.4%; viability, T/C [27]: 82.8%; viability, T/C [28]: 32.9%; viability, T/C [29]: 13.9%; viability, T/C [30]: 67.7%; viability, T/C [31]: 73.2%; viability, T/C [32]: 77.2%; viability, T/C [33]: 69.6%; viability, T/C [34]: 22%; viability, T/C [35]: 8.8%

Q: Which results are given for COc1cc(OC)cc(N(CCNC(C)C)c2ccc3ncc(-c4cnn(C)c4)nc3c2)c1?
A: viability, T/C (compound 0.0316 µM): 94.3% [middle of 5 runs]; viability, T/C (compound 0.1 µM): 91.7% [middle of 5 runs]; viability, T/C (compound 0.316 µM): 92.1% [middle of 5 runs]; viability, T/C (compound 1 µM): 103% [middle of 5 runs]; viability, T/C (compound 3.16 µM): 82.9% [middle of 5 runs]; viability, T/C (compound 10 µM): 2.52% [middle of 5 runs]; IC50 (curve of compound): 5.06 µM [middle of 4 runs]

Q: Which results are given for COC(=O)c1ccc2c(C(=Nc3ccc(N(C)C(=O)CN4CCN(C)CC4)cc3)c3ccccc3)c(O)[nH]c2c1 + CC1OCC2(CCN(c3cnc(Sc4ccnc(N)c4Cl)c(N)n3)CC2)C1N?
A: IC50 [1]: 2340 nM; IC50 [2]: 2180 nM; IC50 [3]: 2250 nM; IC50 [4]: 2010 nM; IC50 [5]: 1270 nM; viability, T/C [6]: 104%; viability, T/C [7]: 103%; viability, T/C [8]: 89.3%; viability, T/C [9]: 85.9%; viability, T/C [10]: 37.4%; viability, T/C [11]: 0.19%; viability, T/C [12]: 102%; viability, T/C [13]: 91%; viability, T/C [14]: 84.8%; viability, T/C [15]: 81.3%; viability, T/C [16]: 35.4%; viability, T/C [17]: 0.2%; viability, T/C [18]: 79.2%; viability, T/C [19]: 84.6%; viability, T/C [20]: 93.5%; viability, T/C [21]: 75.3%; viability, T/C [22]: 38.8%; viability, T/C [23]: 0.16%; viability, T/C [24]: 76%; viability, T/C [25]: 82.4%; viability, T/C [26]: 83.2%; viability, T/C [27]: 69.2%; viability, T/C [28]: 36.9%; viability, T/C [29]: 0.37%; viability, T/C [30]: 66%; viability, T/C [31]: 73.2%; viability, T/C [32]: 68.5%; viability, T/C [33]: 60.3%; viability, T/C [34]: 11.7%; viability, T/C [35]: 1.38%

Q: CC(=O)Nc1cccc(-n2c(=O)n(C3CC3)c(=O)c3c(Nc4ccc(I)cc4F)n(C)c(=O)c(C)c32)c1 + CC1OCC2(CCN(c3cnc(Sc4ccnc(N)c4Cl)c(N)n3)CC2)C1N was tested. Which IC50 [1] did it give?
A: The IC50 was 4.59 nM.

Q: And the IC50 [2]?
A: Its IC50 is 2.09 nM.

Q: And the IC50 [3]?
A: The IC50 was 1.61 nM.

Q: What about the IC50 [4] of the same molecule?
A: Its IC50 is 0.826 nM.

Q: And the IC50 [5]?
A: Its IC50 is 0.257 nM.

Q: What about the viability, T/C (second compound 0.1 µM, first compound 0.0001 µM) of the same molecule?
A: The viability, T/C was 90.5%.

Q: What about the viability, T/C (second compound 0.1 µM, first compound 0.000316 µM) of the same molecule?
A: Its viability, T/C is 79.2%.

Q: What about the viability, T/C (second compound 0.1 µM, first compound 0.001 µM) of the same molecule?
A: The viability, T/C was 64%.

Q: What about the viability, T/C (second compound 0.1 µM, first compound 0.00316 µM) of the same molecule?
A: Its viability, T/C is 54.7%.

Q: And the viability, T/C (second compound 0.1 µM, first compound 0.01 µM)?
A: Its viability, T/C is 42.8%.

Q: What about the viability, T/C [6] of the same molecule?
A: The viability, T/C was 30.5%.

Q: And the viability, T/C (second compound 0.316 µM, first compound 0.0001 µM)?
A: Its viability, T/C is 84.5%.

Q: What about the viability, T/C (second compound 0.316 µM, first compound 0.000316 µM) of the same molecule?
A: Its viability, T/C is 75.8%.

Q: What about the viability, T/C (second compound 0.316 µM, first compound 0.001 µM) of the same molecule?
A: The viability, T/C was 57.5%.

Q: What about the viability, T/C (second compound 0.316 µM, first compound 0.00316 µM) of the same molecule?
A: The viability, T/C was 44.9%.

Q: What about the viability, T/C (second compound 0.316 µM, first compound 0.01 µM) of the same molecule?
A: The viability, T/C was 39.2%.

Q: And the viability, T/C [12]?
A: The viability, T/C was 32.5%.

Q: What about the viability, T/C (second compound 1 µM, first compound 0.0001 µM) of the same molecule?
A: Its viability, T/C is 78.4%.

Q: And the viability, T/C (second compound 1 µM, first compound 0.000316 µM)?
A: The viability, T/C was 66.8%.

Q: And the viability, T/C (second compound 1 µM, first compound 0.001 µM)?
A: The viability, T/C was 55.1%.

Q: And the viability, T/C (second compound 1 µM, first compound 0.00316 µM)?
A: Its viability, T/C is 42.5%.

Q: What about the viability, T/C (second compound 1 µM, first compound 0.01 µM) of the same molecule?
A: Its viability, T/C is 35%.

Q: And the viability, T/C [18]?
A: Its viability, T/C is 27.4%.

Q: And the viability, T/C (second compound 3.16 µM, first compound 0.0001 µM)?
A: Its viability, T/C is 66.5%.

Q: What about the viability, T/C (second compound 3.16 µM, first compound 0.000316 µM) of the same molecule?
A: Its viability, T/C is 65.8%.

Q: What about the viability, T/C (second compound 3.16 µM, first compound 0.001 µM) of the same molecule?
A: The viability, T/C was 45.2%.

Q: What about the viability, T/C (second compound 3.16 µM, first compound 0.00316 µM) of the same molecule?
A: The viability, T/C was 36.2%.

Q: And the viability, T/C (second compound 3.16 µM, first compound 0.01 µM)?
A: Its viability, T/C is 31.4%.

Q: What about the viability, T/C [24] of the same molecule?
A: The viability, T/C was 27.2%.

Q: And the viability, T/C (second compound 10 µM, first compound 0.0001 µM)?
A: The viability, T/C was 63.1%.

Q: And the viability, T/C (second compound 10 µM, first compound 0.000316 µM)?
A: Its viability, T/C is 46.4%.

Q: And the viability, T/C (second compound 10 µM, first compound 0.001 µM)?
A: The viability, T/C was 37.6%.

Q: What about the viability, T/C (second compound 10 µM, first compound 0.00316 µM) of the same molecule?
A: The viability, T/C was 30%.

Q: And the viability, T/C (second compound 10 µM, first compound 0.01 µM)?
A: Its viability, T/C is 23.5%.

Q: And the viability, T/C [30]?
A: The viability, T/C was 24.6%.

Q: Which results are given for CC1(C)CCC(CN2CCN(c3ccc(C(=O)NS(=O)(=O)c4ccc(NCC5CCOCC5)c([N+](=O)[O-])c4)c(Oc4cnc5[nH]ccc5c4)c3)CC2)=C(c2ccc(Cl)cc2)C1 + COc1cc2nc(C)nc(NC(C)c3cc(N)cc(C(F)(F)F)c3)c2cc1OC1CCOC1?
A: IC50 [1]: 6370 nM; IC50 [2]: 5610 nM; IC50 [3]: 2800 nM; IC50 [4]: 2080 nM; IC50 [5]: < 31.6 nM; viability, T/C [6]: 99.9%; viability, T/C [7]: 100%; viability, T/C [8]: 92.4%; viability, T/C [9]: 97.4%; viability, T/C [10]: 66.2%; viability, T/C [11]: 39.6%; viability, T/C [12]: 93.7%; viability, T/C [13]: 100%; viability, T/C [14]: 94.3%; viability, T/C [15]: 93.7%; viability, T/C [16]: 59.4%; viability, T/C [17]: 40.6%; viability, T/C [18]: 93.1%; viability, T/C [19]: 88%; viability, T/C [20]: 94.6%; viability, T/C [21]: 87.5%; viability, T/C [22]: 45.6%; viability, T/C [23]: 27.2%; viability, T/C [24]: 81.4%; viability, T/C [25]: 85.4%; viability, T/C [26]: 91.8%; viability, T/C [27]: 74.6%; viability, T/C [28]: 36%; viability, T/C [29]: 28.6%; viability, T/C [30]: 11.2%; viability, T/C [31]: 14.5%; viability, T/C [32]: 19%; viability, T/C [33]: 26.2%; viability, T/C [34]: 27.2%; viability, T/C [35]: 18.3%
